# What was measured:
# [1] = test system: class I and melanoma-associated antigen expression; assay: Study 2: IHC stains of serial biopsy samples after 5-day course of IFN-alpha; type: in vivo, human; conditions: 10 MU/m^2 s.c., five day course; serial biopsies of a single patient
# Description: Interferon-alpha (IFN-α) has a broad spectrum of immunomodulatory and antiproliferative effects in a variety of malignancies. It is believed that one mechanism of action of IFN-α is the upregulation of tumor antigen expression on melanoma cells. It has the ability to enhance the expression of immunologically important molecules on the surface of the tumor. These include the MHC antigens, accessory molecules, as well as tumor-associated antigens.^25-27 These immunomodulatory effects may improve the activity of the immune system, including both antibodies and lymphocytes, to recognize and attack tumor cells in vivo. […] It is believed that these two modalities of immunotherapy may act synergistically. […] The same 5-day course in clinical study was included in Study 3.
# [2] = 0.07 mg/kg/day x 5 days monthly for 6 months, cited from earlier work
# [3] = test system: lymphocytes; conditions: cited from earlier work
# [4] = test system: lymphocytes; conditions: […] s.c., 5 consecutive days (total 0.7 mg/kg), hairy cell leukemia patients; cited from earlier work
# [5] = subcutaneous versus IV; cited from earlier work
# [6] = administered for 4 monthly courses
Compound,upregulation of class I and melanoma-associated antigen expression (IHC) [1],haematological toxicity ([2]; cumulative 2.1 mg/kg),"patients with mild segmental herpes zoster ([2]; 27 patients in drug arm, one case on placebo)",lymphopenia ([3]; MS patients),"time at which lymphocyte levels begin to recover [3, 6] [months]","time to lymphocyte nadir [3, 6] [months]",safety [4],pharmacokinetic and therapeutic results of subcutaneous route [5]
IFN-α,sufficient to upregulate both class I and melanoma-associated antigen expression,–,–,–,–,–,–,–
"Nc1nc(Cl)nc2c1ncn2[C@H]1C[C@H](O)[C@@H](CO)O1 [cladribine, 2-chloro-2′deoxy-β-D-adenosine]",–,"no individual cases of significant thrombocytopenia, anemia granulocytopenia or generalized marrow suppression",two,observed in all patients,≤ 6,5,safe,entirely equivalent to the IV route

# — patent publication US7993638B2, “Cancer treatment combining lymphodepleting agent with CTLs and cytokines” (Janssen Pharmaceutica NV, priority 2006, dated 2011)
